Laboratory results taken from patent US8865653B2, “Method of treatment for immunogenic treatment resistant cancer” (Institut Gustave Roussy, priority 2010, dated 2014).

Key:
MCA205 tumors = experiment: Gene expression assays in tumors (TaqMan RT-PCR) 8 days after DX; type: in vivo, mice; conditions: 8 days post-treatment, quantitative RT-PCR
Description: Whole RNA was extracted using RNeasy Mini Kit, QIAGEN from pieces of tumor homogenates. 5 μg of RNA from each sample were reverse-transcribed using Quantitect Reverse Transcription Kit (QIAGEN). Gene expression assays were performed with TaqMan® 96 well Plates customized to test cytokines, chemokines as well as transcription factors using StepOnePlus™ Real-Time PCR System. PPIA was chosen as the endogenous control to perform normalization between different samples.

[1] = test system: tumor infiltrating lymphocytes (TILs) of MCA205 tumors; experiment: Tumor dissection and flow cytometry of TILs (IFN-γ, IL-17); type: in vivo, mice
Description: Tumor burdens were carefully removed, cut into small pieces with scissors within digesting buffer (400 U/ml Collagenase IV and 150 U/ml DNase I in RPMI1640) and incubated for 30 min at 37° C. Single cell suspension was obtained by grinding the digested tissue and filtering through 70 μM cell strainer. […] LIVE/DEAD Fixable Dead Cell Stain Kit was used to distinguish live and dead cells. For intracellular staining, freshly isolated cells were treated with, 50 ng/ml PMA, 1 μg/ml ionomycin and Golgi-stop (BD Pharmingen), 4 hrs, 37° C. in RPMI containing 2% mouse serum (Janvier, France). Cells were then washed with PBS and stained with anti-IFN-γ (PE-cy7) and anti-IL-17 (PE) using BD Cytofix/Cytoperm™ Kit following the instructions.

CT26 colon cancer = experiment: Anthracycline chemotherapy of established CT26 colon cancer; type: in vivo, mice; conditions: single intratumoral injection
Description: 0.8 million MCA205 or CT26 or TS/A tumor cells were inoculated subcutaneously near the thigh into C57Bl/6 (H-2^b) or BALB/c (H-2^d) mice. Anthracyclines-based chemotherapy was performed in MCA205 and CT26 models by intratumoral injecting DX (2 mM, […]) when tumors reached the size 25-40 mm^2. Radiotherapy was performed by local X-ray irradiation (10 Gy, RT250, Phillips) at the unshielded tumor area when TS/A tumor reached the size 40-60 mm^2.

MCA 205 tumors = experiment: qRT-PCR of tumor gene expression after Doxorubicin; type: in vivo, mice; conditions: 2 days after treatment; Mavs, Irf3, Irf1 and Tnf unchanged
Description: 0.8 Million of MCA 205 has been subcutaneously implanted to C57Bl6 mice.
Tumor samples were freshly collected, briefly washed in RPMI1640 media (GIBCO). Tissue samples were cut to a maximum thickness in any one dimension of 0.5 cm, placed in 5 volumes of RNAlater® (SIGMA ALDRICH). Samples can be stored at room temperature if processed for RNA extraction on the same day or stored at 4° C. for less than 1 month. RNA extraction from each tumor (up to 30 mg/sample) was performed using RNeasy Mini Kit (QIAGEN) following the instructions.
Add 20 μL1 of Master mix (dN6 (3 ng/μl), dNTP (1 mM), Buffer (1×), RNAsin (40 U) Superscript® III RT (200 U)) into the processed mRNA sample. Mix was incubated at 50° C. for 1 h and then inactivated at 75° C. for 15 min.
cDNA of each sample was diluted at 1:3 with DNase free water. For each sample, 4 μl of primer and probe TAQMAN (2×), 10 μl of assay mix (20×), 5 μl diluted cDNA were added. qRT-PCR was performed (45 cycles with standard PCR program using StepOnePlus™ system (Applied Biosystems). PPIA was used as endogenous control gene to normalize gene expression for data analysis.

MCA205 fibrosarcoma = experiment: Chemotherapy and Dendrophilin treatment of established MCA205 tumors; type: in vivo, mice; conditions: doxorubicin intratumorally
Description: (§1) WT or loss-of-function mice were injected in the right flank with 1×10^6 of EL4 or CT26 or MCA205 cells. Mice were then randomly assigned into treatment groups of 4-6 mice each. […] Two and/or four days after chemo treatment, mice were treated with Dendrophilin or LPS (2 μg in 100 μl NaCl per mouse i.v or i.t). […] Tumor growths were monitored every 3-4 days using a caliper.

U2OS cells [2] = experiment: US Drug library screen: CRT-GFP, HMGB1-GFP, quinacrine; conditions: 1 μM, 4 h / 24 h / 16 h
[3] = test system: U2OS cells stably expressing CRT-GFP; experiment: CRT-GFP redistribution (granularity, nuclear shape) by automated microscopy; ICCB library screen; type: cell-based, human; conditions: 1 μM MTX, 150 μM CDDP, 300 μM OXP
Description: The data is depicted as mean±s.e.m. of quadruplicates from a representative experiment. (C) Immunofluorescene was conducted on CRT-GFP expressing cells by means of staining with anti-CRT antibody and subsequent confocal image acquisition. (D) CRT has been cloned in frame n-terminal to a HaloTag® sequence followed by a KDEL ER retention signal. (E) The impermeable HaloTag® ligand forms covalent bonds exclusively with surface exposed HaloTag®-CRT fusion protein, whereas intracellular HaloTag®-CRT remains undetected.
Compounds from the ICCB known bioactive compounds library have been tested for their capacity to induce CRT-exposure. […] The cells were incubated for 4 h and were acquired by means of automated microscopy. The data is depicted as dot plots and representative images (B).
After washing with PBS 4 viewfields per well were acquired by means of a BD pathway 855 automated microscope.

U2OS cells [4] = type: cell-based
Description: The data is depicted as representative images (A) and (B) normalized Bax-GFP granularity values.
The data represents mean±s.e.m. of quadruplicates from a representative experiment. […] 16 h after treatment, cell death was monitored by simultaneous staining with 3,3 dihexyloxacarbocyanine iodide (DiOC6(3)) and propidium iodide (PI), and the percentage of dying (DiOC6(3)^low PI^−, open bars) and dead (DiOC6(3)^low PI^+, closed bars) cells was determined by cytofluorometry.
Cell death was quantified by cytofluorometric analysis using a FACS Vantage (Becton Dickinson, Mountain View, USA) as described previously (REF). Thus, cells were stained with 40 nM 3,3 dihexyloxacarbocyanine iodide (DiOC6(3); Molecular Probes, Eugene, Oreg., USA) for 30 min at 37° C. and concomitantly with 1 μg/ml propidium iodide (PI; Sigma Aldrich) for 30 min at 37° C. to determine the mitochondrial transmembrane potential. Data were statistically evaluated using CellQuest Pro software (Becton Dickinson, Mountain View, USA).

U2OS cells [5] = experiment: ATP release assays (quinacrine, luciferin-based); type: cell-based, human; conditions: 16 h post-treatment, intracellular and extracellular ATP
Description: In short, cells were labeled with 1 μM quinacrine in Krebs-Ringer solution (125 mM NaCl, 5 mM KCl, 1 mM MgSO4, 0.7 mM KH2PO4, 2 mM CaCl2, 6 mM glucose and 25 mM Hepes, pH 7.4) for 30 min at 37° C.
After incubation in quinacrine solution (as described above), cells were rinsed and resuspended in PBS containing 1 μg/ml PI. The samples were analyzed by means of a FACS Vantage (Becton Dickinson) and the data was statistically evaluated using the CellQuest Pro software (BD Biosciences).
After cell death induction, extracellular ATP was measured by luciferin-based ENLITEN ATP Assay (Promega, Madison, USA) following the manufacturer's instructions. Intracellular ATP was measured using an ATP Assay kit (Calbiochem, Darmstadt, Germany) based on luciferin-luciferase conversion following the manufacturer's instructions. For assessment of the chemoluminescent signal, the plates were read in a Fluostar luminometer (BMG Labtech).

eIF2α = experiment: Immunoblotting of eIF2α / PERK phosphorylation; type: cell-based
Description: (E) The phosphorylation status of eIF2α has been assessed by immunoblotting against the phosphoneoepitope Ser51 of eIF2α by means of a monoclonal antibody. A polyclonal antibody has been used to visualize whole eIF2α protein levels.

[6] = test system: CT26 overexpressing LC3-GFP; experiment: Induction of autophagy in vivo, LC3-GFP redistribution; set-up: species or system mice; conditions: i.v., tumors withdrawn 48 hours post-therapy
Description: After 8 days of tumor implantation (CT26 mouse colon cancer genetically modified to overexpress LC3-GFP in BALB/c immunocompetent mice), oxaliplatin or mitoxanthrone was inoculated systemically (i.v.). Tumors were withdrawn at 48 hours post-therapy and immunofluorescence stainings were performed on frozen sections of tumor tissues to visualize nuclei (in Hoechst blue), and autophagosomes in green (LC3-GFP). […] The lower panel is a graph summarizing enumeration of autophagosomes positive cells in 10 independent sections per tumor and animal (each dot represents one tumor). Statistical analyses were performed with Anova test (Fisher's exact method) with significant results at p<0.05.

EL4 thymoma = experiment: Chemotherapy and Dendrophilin treatment of established EL4 tumors; type: in vivo, mice; conditions: oxaliplatin 5 mg per kg i.p.
Description: as §1

MCA205 cells = experiment: In vivo anti-tumor vaccination with treated MCA205 cells (Example 3); conditions: s.c. injection, rechallenge with live tumor cells
Description: (F) MCA205 cells have been used for tumor vaccination in vivo. […] The mice have been rechallenged after 6 days with living cells and the tumor growth is depicted in the survival plot (n=10).
Tumor growth was evaluated for at least 50 days.

U2OS cells [7] = experiment: Analysis of surface exposed CRT (HaloTag ligand, anti-CRT immune staining)

COc1cccc2c1C(=O)c1c(O)c3c(c(O)c1C2=O)C[C@@](O)(C(=O)CO)C[C@@H]3O[C@H]1C[C@H](N)[C@H](O)[C@H](C)O1 [DX, doxorubicin]
Eomes, Tbx21 (T-bet) and IFN-γ expression increase, DX versus PBS-treated tumors (MCA205 tumors): 4-5 fold | increase in the proportions of IFN-γ and IL-17 producing TILs ([1]; DX compared with PBS, flow cytometry, day 8): 3 fold | IFN-γ production by CD8+ and CD4+ TILs and IL-17 production by γδ TILs ([1]; MCA205, post-chemotherapy): substantially enhanced | tumor growth (CT26 colon cancer): significantly retarded tumor growth | genes involved in viral recognition and anti-viral immune responses, RT-PCR (MCA 205 tumors): specifically up-regulated | antitumor effects of chemotherapy alone (MCA205 fibrosarcoma): only mild effects | rank in screen for exposing CRT and emitting HMGB1 and ATP (U2OS cells [2]): most potent in exposing CRT, and emitting HMGB1 and ATP

O=C1[O][Pt]2([NH][C@@H]3CCCC[C@H]3[NH]2)[O]C1=O [OXP, oxaliplatin]
CRT-GFP granularity (relocation to peripheral granular distribution) [3]: only observed after treatment of the cells with MTX or OXP | IC50 (U2OS cells [4]; short-term experiments, loss of the mitochondrial transmembrane potential ΔΨm, read-out: IC50, imminent cell death): ~600 µM | mitochondrial perturbations (ΔΨm dissipation, Bax-GFP relocation) (U2OS cells [4]; used at their IC50): induced similar mitochondrial perturbations | ATP release (U2OS cells [5]): induced ATP release | eIF2α phosphorylation on serine 51 (eIF2α; phospho-neoepitope-specific antibody): much more efficient than CDDP | activating phosphorylation of PERK (eIF2α; shortly after treatment): detectable shortly after treatment with OXP | redistribution of LC3-GFP in autophagosomes in tumors [6]: Redistribution of LC3-GFP in autophagosomes can be visualized post-therapy | antitumor effects of chemotherapy alone (EL4 thymoma): only mild effects | protective anticancer immune response after vaccination with drug-treated MCA205 cells (MCA205 cells): readily induce such a tumor-protective response | surface exposure of CRT-HaloTag (U2OS cells [7]; cell-impermeable HaloTag ligand, microscopy and cytofluorometry): unless they were treated with immunogenic cell death inducers such as OXP | surface immunofluorescence staining of CRT (U2OS cells [7]; non-permeabilized CRT-GFP cells): actually extruded CRT
